Measurements from publication PMC6123676, “Androgen receptor degradation by the proteolysis-targeting chimera ARCC-4 outperforms enzalutamide in cellular models of prostate cancer drug resistance” (Communications Biology, 2018).
pIC50: −log10 of the molar value. Read-outs that look alike come from different tables or passages of the source.

Legend:
androgen receptor [1] = target: T1, androgen receptor (Homo sapiens, UniProt P10275); assay: competition radioligand binding with [3H]R1881 (LNCaP cell lysate); design: gene AR; AR in LNCaP cell lysates
Target sequence in this assay (P10275 whole entry): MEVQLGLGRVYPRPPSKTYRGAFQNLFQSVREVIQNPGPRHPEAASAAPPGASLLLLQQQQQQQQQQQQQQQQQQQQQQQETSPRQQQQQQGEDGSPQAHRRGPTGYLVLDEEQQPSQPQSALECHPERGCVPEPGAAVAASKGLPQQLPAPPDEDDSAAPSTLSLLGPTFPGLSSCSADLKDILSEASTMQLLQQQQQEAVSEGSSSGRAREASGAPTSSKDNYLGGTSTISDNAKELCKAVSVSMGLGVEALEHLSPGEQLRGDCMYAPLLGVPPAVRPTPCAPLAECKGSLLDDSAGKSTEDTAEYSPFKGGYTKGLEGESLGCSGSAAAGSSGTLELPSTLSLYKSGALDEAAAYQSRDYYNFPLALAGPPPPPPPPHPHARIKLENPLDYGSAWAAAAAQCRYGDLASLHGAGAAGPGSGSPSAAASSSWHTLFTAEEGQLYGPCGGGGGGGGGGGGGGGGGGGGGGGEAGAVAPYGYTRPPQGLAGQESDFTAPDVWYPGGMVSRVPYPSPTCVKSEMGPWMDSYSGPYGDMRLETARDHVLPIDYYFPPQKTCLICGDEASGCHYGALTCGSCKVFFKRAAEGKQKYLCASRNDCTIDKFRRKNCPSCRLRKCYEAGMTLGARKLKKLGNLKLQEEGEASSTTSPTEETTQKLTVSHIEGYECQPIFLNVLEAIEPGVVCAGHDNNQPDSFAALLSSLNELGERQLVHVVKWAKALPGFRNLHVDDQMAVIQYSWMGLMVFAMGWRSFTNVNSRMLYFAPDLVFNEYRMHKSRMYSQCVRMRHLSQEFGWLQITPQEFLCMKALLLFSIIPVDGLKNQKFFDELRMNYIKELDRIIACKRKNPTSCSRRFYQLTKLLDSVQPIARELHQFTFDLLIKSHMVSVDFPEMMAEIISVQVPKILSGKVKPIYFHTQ

androgen receptor [2] = target: T1, androgen receptor; assay: PROTAC degradation of AR in VCaP cells, western blot (Dmax); assay type: cell-based; design: gene AR; endogenous AR in VCaP cells; with VHL
Target sequence in this assay (P40337 whole entry): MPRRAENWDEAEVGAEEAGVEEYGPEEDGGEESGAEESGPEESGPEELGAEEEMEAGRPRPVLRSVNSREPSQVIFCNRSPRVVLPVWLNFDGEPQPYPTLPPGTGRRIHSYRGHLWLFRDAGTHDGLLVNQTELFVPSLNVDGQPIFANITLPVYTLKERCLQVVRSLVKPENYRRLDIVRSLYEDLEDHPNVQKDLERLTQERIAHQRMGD
Target sequence in this assay (P10275 whole entry): as the sequence (P10275 whole entry) above

von Hippel-Lindau (VHL) = target: T2, von Hippel-Lindau (VHL) (Homo sapiens, UniProt P40337); assay: AR degradation lost on VHL knockdown and with the non-VHL-binding epimer; assay type: cell-based
T2 construct: endogenous VHL in VCaP cells; with androgen receptor
T2 sequence (P10275 whole entry): as above
T2 sequence (P40337 whole entry): as the sequence (P40337 whole entry) above

androgen receptor [3] = target: T1, androgen receptor; design: gene AR
Target sequence in this assay (P10275 whole entry): as the sequence (P10275 whole entry) above

androgen receptor [4] = target: T1, androgen receptor; assay: degradation of AR in VCaP cells, western blot (DC50; Dmax […]); assay type: cell-based; design: gene AR; endogenous AR in VCaP cells
Target sequence in this assay (P10275 whole entry): as above

SMILES: Cc1ncsc1-c1ccc(CNC(=O)[C@@H]2C[C@H](O)CN2C(=O)[C@@H](NC(=O)COCCCCOc2ccc(-c3ccc(N4C(=S)N(c5ccc(C#N)c(C(F)(F)F)c5)C(=O)C4(C)C)cc3)cc2)C(C)(C)C)cc1 (mixture of isomers) [compound 3, epimer]
- pIC50 (androgen receptor [1]): 7.39

SMILES: Cc1ncsc1-c1ccc(CNC(=O)[C@@H]2C[C@@H](O)CN2C(=O)[C@@H](NC(=O)COCCOCCOCCOc2ccc(N3C(=S)N(c4ccc(C#N)c(C(F)(F)F)c4)C(=O)C3(C)C)cc2)C(C)(C)C)cc1 [2a]
- Dmax (androgen receptor [2]): 47%

SMILES: Cc1ncsc1-c1ccc(CNC(=O)[C@@H]2C[C@@H](O)CN2C(=O)[C@@H](NC(=O)COCCCCOc2ccc(-c3ccc(N4C(=S)N(c5ccc(C#N)c(C(F)(F)F)c5)C(=O)C4(C)C)cc3)cc2)C(C)(C)C)cc1 [2c, ARCC-4]
- pIC50 (androgen receptor [1]; read-out: IC50): 7.44
- AR degradation lost on VHL knockdown and with the non-VHL-binding epimer (von Hippel-Lindau (VHL)): confirmed that ARCC-4-mediated AR degradation is dependent upon VHL recruitment and binding

SMILES: C[C@]1(O)CC[C@H]2[C@@H]3CCC4=CC(=O)CCC4=C3C=C[C@@]21C [R1881]
- radioligand of the AR binding assay; also out-competes ARCC-4 in VCaP cells (androgen receptor [3]): AR radioligand binding assay to determine the IC50 values for inhibiting binding between AR and (^3H) R1881

SMILES: CC1(C)C(=O)N(c2ccc(C#N)c(C(F)(F)F)c2)C(=S)N1CCCC(=O)NCCOCCOC(=O)CC12CC3CC(CC(C3)C1)C2 [SARD279]
- DC50 (androgen receptor [4]): 1100 nM
